Reference: patent US20110002843A1, “METHOD OF DETECTING MYOCARDIAL DYSFUNCTION IN PATIENTS HAVING A HISTORY OF ASTHMA OR BRONCHOSPASM” (priority 2005, published 2011)

Legend:
A1 adenosine receptor = molecular target: T1, A1 adenosine receptor (Cavia porcellus, UniProt P47745); parameters: a Langendorff guinea pig heart preparation; from tissue; host or cells: isolated perfused guinea pig heart (Langendorff); conditions: heart paced at 260 beats/min; data of U.S. Pat. No. 5,278,150; read-out: EC50—SQPR (A1); cited from earlier work
T1 sequence (P47745 1-326): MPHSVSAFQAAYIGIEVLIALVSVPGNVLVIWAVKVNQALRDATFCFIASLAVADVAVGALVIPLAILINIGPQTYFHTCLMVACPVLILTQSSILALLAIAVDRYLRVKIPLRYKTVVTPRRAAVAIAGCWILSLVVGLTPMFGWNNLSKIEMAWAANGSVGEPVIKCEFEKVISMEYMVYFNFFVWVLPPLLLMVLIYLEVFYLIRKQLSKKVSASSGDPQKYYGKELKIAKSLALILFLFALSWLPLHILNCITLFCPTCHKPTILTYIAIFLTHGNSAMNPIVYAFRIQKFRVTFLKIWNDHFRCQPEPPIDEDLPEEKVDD

A2A adenosine receptor [1] = molecular target: T2, A2A adenosine receptor (Cavia porcellus, UniProt P46616); parameters: a Langendorff guinea pig heart preparation; from tissue; host or cells: isolated perfused guinea pig heart (Langendorff), coronary vasculature; conditions: heart paced at 260 beats/min; data of U.S. Pat. No. 5,278,150; read-out: EC50—CF (A2A); cited from earlier work
A2A adenosine receptor [2] = molecular target: T2, A2A adenosine receptor; test: Langendorff guinea pig heart preparation, coronary vasodilation (coronary flow); conditions: quotient EC50-SQPR / EC50-CF
Description: The A1/A2A selectivity in Table 1 was calculated as the quotient of the EC50 of stimulus-QRS prolongation divided by the EC50 of coronary vasodilation.

[3] = Dose-selection study of coronary hyperemia (CBFV by Doppler guide wire) in non-asthmatic patients at cardiac catheterization; conditions: intracoronary bolus injections before binodenoson
Description: Coronary blood flow velocity reserve (CBFVR) was established by intracoronary (IC) bolus injections of adenosine just prior to administration of binodenoson to allow a direct comparison of the magnitude of responses.
Patients presenting for cardiac catheterization were screened for eligibility and provided informed consent prior to sedation. Final eligibility was determined by the investigator during diagnostic catheterization.
Following completion of the diagnostic catheterization procedure and confirmation of all eligibility criteria, the Doppler guide wire was introduced into an accessible coronary artery and manipulated until a stable signal was obtained.
Drug administration: All usual catheterization procedural medications including IC nitroglycerin, heparin, anxiolytics and analgesics, were allowed. […] Binodenoson doses were then introduced into a peripheral vein via an indwelling catheter.
Measurements: Coronary blood flow velocity (CBFV) was measured as continuous pulsatile (systolic and diastolic) velocity (cm/sec) with the Doppler guide wire introduced via a guiding catheter. HR was derived from the ECG signal. SBP and diastolic blood pressure (DBP) were recorded directly from the catheter sheath. For each IC adenosine injection, CBFVR was calculated by dividing the peak post-injection CBFV value by the respective baseline CBFV value. Each patient's maximal calculated CBFVR was used as a benchmark to which CBFV responses to binodenoson were compared. For each binodenoson dose, baseline CBFV (post-IC adenosine), peak CBFV, time following dose start time to achieve peak CBFV and percents of CBFVR (calculated as the ratio of CBFV change from baseline following binodenoson administration vs CBFVR) at each point were calculated. Rate pressure product (RPP) and coronary vascular resistance (CVR) were derived at each time point (see formulas in Table 10). […] Vital signs were measured again approximately 3 to 4 hours after dosing or prior to hospital discharge. Patients returned for a follow-up visit 2 to 4 days following catheterization that included vital signs, an abbreviated physical examination, a 12-lead ECG, blood chemistry and hematology assessments and an assessment of any late-emerging adverse events.
Adverse events were monitored throughout the study.
Statistical analyses: All pharmacodynamic and safety data were analyzed using the intent-to-treat (ITT) population, which included all patients who received any amount of study drug. A paired t test was used to assess the significance of within-treatment differences (peak vs baseline) in CBFV, vital signs and calculated CVR and RPP; repeated comparisons were corrected using the Bonferroni-Holm method. The statistical significance of differences among treatment groups was evaluated using an analysis of variance (ANOVA) model that included treatment and investigator interactions.

T2 sequence (P46616 whole entry, the tested form may be a part): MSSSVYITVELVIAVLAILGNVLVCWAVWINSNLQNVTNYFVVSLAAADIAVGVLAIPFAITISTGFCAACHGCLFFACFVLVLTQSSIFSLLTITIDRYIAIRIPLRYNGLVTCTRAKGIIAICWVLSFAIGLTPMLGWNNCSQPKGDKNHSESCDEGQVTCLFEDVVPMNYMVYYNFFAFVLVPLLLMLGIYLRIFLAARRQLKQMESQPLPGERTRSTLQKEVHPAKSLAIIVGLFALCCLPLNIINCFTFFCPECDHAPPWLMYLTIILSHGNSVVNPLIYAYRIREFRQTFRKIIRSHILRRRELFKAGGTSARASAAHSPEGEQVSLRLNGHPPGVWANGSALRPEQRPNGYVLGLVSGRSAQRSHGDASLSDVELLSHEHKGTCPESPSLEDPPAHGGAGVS

| Structure (SMILES) | EC50 (A1 adenosine receptor) [µM] | EC50 (A2A adenosine receptor [1]) [µM] | A1/A2A Selectivity (A2A adenosine receptor [2]) | further results |
| --- | --- | --- | --- | --- |
| Nc1nc(N/N=C/C2CC=CCC2)nc2c1ncn2[C@@H]1O[C@H](CO)[C@@H](O)[C@H]1O (stereo in doubt) [B, 2-{2-[(Cyclohex-3-enyl)methylene]hydrazino}adenosine] | 13.8 | – | – | – |
| Nc1nc(N/N=C/c2ccccc2)nc2c1ncn2[C@@H]1O[C@H](CO)[C@@H](O)[C@H]1O (stereo in doubt) [I, 2-[2-(Benzylidene) hydrazino]adenosine] | 83.2 | 0.00229 | 36,300 | – |
| CC(C)CCC=NNc1nc(N)c2ncn([C@@H]3O[C@H](CO)[C@@H](O)[C@H]3O)c2n1 [C, 2-[2-(4-methylpentylidene)hydrazino]adenosine] | – | – | 44,700 | – |
| Nc1ncnc2c1ncn2[C@@H]1O[C@H](CO)[C@@H](O)[C@H]1O [Compare A, Adenosine, reference compound] | – | – | – | effect on CBFV [3]: transient increases; effects on SBP, DBP, or HR [3]: no consistent effects |
| Nc1nc(N)c2ncn([C@@H]3O[C@H](CO)[C@@H](O)[C@H]3O)c2n1 [Compare B, 2-Amino-adenosine, reference compound] | – | 0.22 | 50 | – |
| NNc1nc(N)c2ncn([C@@H]3O[C@H](CO)[C@@H](O)[C@H]3O)c2n1 [Compare C, 2-Hydrazino-adenosine, reference compound] | – | – | 250 | – |
| CCCCC(CC)CC=NNc1nc(N)c2ncn([C@@H]3O[C@H](CO)[C@@H](O)[C@H]3O)c2n1 (some centres unmarked) [D, 2-[2-(3-ethylheptylidene)hydrazino]adenosine] | 9.77 | – | – | – |
| CCCCCC=NNc1nc(N)c2ncn([C@@H]3O[C@H](CO)[C@@H](O)[C@H]3O)c2n1 [E, 2-[2-(hexylidene)hydrazino]adenosine] | – | – | 38,000 | – |
| CCCC(CCC)CCC=NNc1nc(N)c2ncn([C@@H]3O[C@H](CO)[C@@H](O)[C@H]3O)c2n1 [G, 2-[2-(4-propylheptylidene)hydrazino]adenosine] | 66.1 | 0.00178 | 37,200 | – |
| Nc1nc(NN=Cc2ccc(F)cc2)nc2c1ncn2[C@@H]1O[C@H](CO)[C@@H](O)[C@H]1O [J, 2-[2-(4-Fluorobenzylidene) hydrazino]adenosine] | – | – | 5,100 | – |
| Cc1ccc(C=NNc2nc(N)c3ncn(C4OC(CO)C(O)C4O)c3n2)cc1 (centres unmarked) [K, 2-[2-(4-Methylbenzylidine) hydrazino]adenosine] | 39.8 | – | – | – |
| Cc1cccc(C=NNc2nc(N)c3ncn(C4OC(CO)C(O)C4O)c3n2)c1 (centres unmarked) [L, 2-[2-(3-Methylbenzylidine)hydrazino]adenosine] | 17 | 0.0044 | 3,800 | – |
